Measurements reported in patent US20140235630A1, “COMPOSITIONS AND METHODS FOR THE TREATMENT OF PROLIFERATIVE DISEASES” (Beth Israel Deaconess Medical Center, Inc., priority 2011, published 2014).
Several values for one entry are separate records, joined by “and”; a condition that tells them apart may be missing. Equal values may be shown once.

Legend:
[1] = Intratumoral Compound A concentration by LC/MS/MS; type: in vivo, mouse; settings: 3 hours after last dose; Compound A 30 mg/kg/day, alone or with Compound B 50 mg/kg/day
Experimental: FIG. 6F is a graph showing the intratumoral Compound A concentrations as assessed by mass spectrometry of tumor tissues harvested from animals 3 hours after last treatment with Compound A (30 mg/kg/day), Compound B (50 mg/kg/day), or their combination.
Metabolites from 100 mg of mouse tumor samples were extracted using 80% methanol according to Yuan et al. (Nat. Protoc., 7: 872-881, 2012) 10 μL were injected and analyzed using a 5500 QTRAP hybrid triple quadrupole mass spectrometer (AB/SCIEX) coupled to a Prominence UFLC HPLC system (Shimadzu) via selected reaction monitoring (SRM) for the Q1/Q3 transition of 410.8/367.0 for 5-(2,6-dimorpholinopyrimidin-4-yl)-4-(trifluoromethyl)pyridin-2-amine (Compound A). ESI voltage was +4900V in positive ion mode using a dwell time of 4 msec and collision energy of 45. Approximately 15 data points were obtained for Compound A per LC/MS/MS experiment. Samples were delivered to the MS via hydrophilic interaction chromatography (HILIC) using a 4.6 mm i.d×10 cm Amide Xbridge column (Waters) at 350 μL/min. Gradients were run starting from 85% buffer B (HPLC grade acetonitrile) to 42% B from 0-5 minutes; 42% B to 0% B from 5-16 minutes; 0% B was held from 16-24 minutes; 0% B to 85% B from 24-25 minutes; 85% B was held for 7 minutes to re-equilibrate the column. Compound A eluted at approximately 3.50 min. […]

[2] = system: patient-derived tumor with BRCA1 germline mutation 185delAG; assay: Patient-derived BRCA1 185delAG breast tumor xenograft growth; type: in vivo, human; settings: tumor resistant to standard chemotherapy and Compound B; Compound A 30 mg/kg/day, Compound B 50 mg/kg/day
Text: FIGS. 6G and 6H are graphs showing the relative tumor volume (RTV) over time of tumors from breast cancer tissues from two patients, one with a 185delAG germline mutation (6G) and the other one with a 2080delA germline mutation (6H), propagated as subcutaneous implants in nude mice. Tumors were allowed to grow to a size of 5 mm when mice were randomized to treatments with either vehicle control (squares), Compound A (upside-down triangles), Compound B (triangles), or their combination (diamonds) (n=6 for each cohort, same dosing as in 6F).
All animal experiments were conducted in accordance with IACUC-approved protocols at Beth Israel Deaconess Medical Center, Boston, and at the University of Vall d'Hebron, Barcelona, Spain. […] The floxed or wild type status of Brca1, the presence of the MMTV-Cre transgene and the p53 heterozygosity were determined by PCR. […] When tumormetrics were performed, the length and width of the tumor was determined using calipers, and the tumor volume was determined (width^2×length/2). Tumor volume was used as a measure of growth and was recorded as ratio to tumor volume at diagnosis. Tumor doubling times were calculated using the functions of the best fit curves for all data points in each treatment modality. […]

[3] = system: BRCA1-deleted mammary tumors of MMTV-CreBRCA1^f/fp53+/− mice; assay: 18FDG PET-CT scanning of tumor-bearing mice; type: in vivo, mouse; settings: for FDG-uptake of treated tumors: Compound B-treated versus Compound A or combination
Experimental: All animal experiments were conducted in accordance with IACUC-approved protocols at Beth Israel Deaconess Medical Center, Boston, and at the University of Vall d'Hebron, Barcelona, Spain. Female MMTV-CreBRCA1^f/fp53+/− mice were obtained by breeding BRCA1 conditional knockout mice from the NIH repository (01XC8, strain C57BL/6) (Xu et al. Nat. Genet., 22: 37-43, 1999); with MMTV-Cre (Jackson Laboratory B6129-TgN(MMTV-Cre)4Mam) (Wagner et al. Nucleic Acids Res., 25: 4323-4330, 1997) and p53 knockout (Taconic Farms, P53N12-M, C57BL/6) (Donehower et al. Nature, 356: 215-221, 1992). At the time of the study, mice had been inbred for 4 years (>7 generations). The floxed or wild type status of Brca1, the presence of the MMTV-Cre transgene and the p53 heterozygosity were determined by PCR. Mice were examined for the occurrence of tumors twice weekly. When tumormetrics were performed, the length and width of the tumor was determined using calipers, and the tumor volume was determined (width^2×length/2). Tumor volume was used as a measure of growth and was recorded as ratio to tumor volume at diagnosis. Tumor doubling times were calculated using the functions of the best fit curves for all data points in each treatment modality. 5-(2,6-dimorpholinopyrimidin-4-yl)-4-(trifluoromethyl)pyridin-2-amine (Compound A) was resuspended in 5% Methylcellulose solution (Fluka) and administered via oral gavage at 50 mg/kg/day or 30 mg/kg/day. 4-[[3-[4-(cyclopropanecarbonyl)piperazine-1-carbonyl]-4-fluorophenyl]methyl]-2H-phthalazin-1-one (Compound B) was resuspended for intraperitoneal administration as described (Rottenberg et al. Proc. Natl. Acad. Sci. USA., 105: 17079-17084, 2008) and dosed at 50 mg/kg/day. For patient-derived tumor grafts consent for tumor use was obtained from patients under a protocol approved by the Vall d'Hebron Hospital Clinical Investigation Ethical Committee. Tumors were subcutaneously implanted in 6-week-old female HsdCpb:NMRI-Foxn1nu mice (Harlan Laboratories, Italy) Animals were supplemented with 1 μM estradiol (Sigma) in the drinking water. After tumor graft growth, tumor tissue was re-implanted into recipient mice, which were randomized upon implant growth.
0.3 to 0.4 mCi of fluorine-18-deoxyglucose were injected intravenously through the retroorbital vein of the anesthetized mouse. After a “washout” period of 1 hour the mouse was imaged on a NanoPET/CT (Bioscan/Mediso) scanner. The NanoPET/CT is a high-resolution small-animal multimodality scanner consisting of 12 lutetium yttrium oxyorthosilicate (LYSO) detector blocks. The blocks comprise a total of 39,780 crystals each with a dimension of 1.2×1.2×13 mm^3.
Images were acquired in three dimensions. The mice remained supine and maintained their position throughout the procedure. First, a CT scan was performed and second, a whole-body ^18F-FDG PET emission scan was acquired covering the same area as the CT scan. Counts per minute (cpm) were obtained, converted to mCi, and values were normalized for ROI volume and injected dose. In order to correct for metabolic variability between exams and to determine tumor-specific uptake changes, FDG-uptake rates were corrected for cardiac FDG-uptake (μCi injected/voxels^tumor)/(μCi/μCi injected/voxels^heart). For studies involving repeat scanning, the change in tumor-specific FDG-uptake was determined in percent (1−(FDG-uptake^post/FDG-uptake^pre)×100) Animals were housed in the Longwood SAIF satellite animal facility between scans.

[4] = after 2 weeks of continued treatment
[5] = within 48 hours of instituting treatment

Compound A levels in tumor tissues [1]	SMILES	growth of patient-derived tumor (relative tumor volume) [2]	FDG-uptake of treated tumors [3]	median decrease in FDG-uptake [3, 4] [%]	range of decrease in FDG-uptake [3, 4]	decrease in 18FDG-uptake, individual tumors of one mouse ([3]; within 48 hours after start, 50 mg/kg/day by gavage, four simultaneous tumors, 50 mg/kg/day)	median decrease in FDG-uptake [3, 5] [%]	range of decrease in FDG-uptake [3, 5]
consistently in the micro-molar range	Nc1cc(C(F)(F)F)c(-c2cc(N3CCOCC3)nc(N3CCOCC3)n2)cn1 [Compound A, 5-(2,6-dimorpholinopyrimidin-4-yl)-4-(trifluoromethyl)pyridin-2-amine]	modestly attenuated	strongly reduced FDG-uptake	54	45.5-70.5%	45% and 64% (2×) and 56%	46.7	38.1-92.3
–	O=C(c1cc(Cc2n[nH]c(=O)c3ccccc23)ccc1F)N1CCN(C(=O)C2CC2)CC1 [Compound B, 4-[[3-[4-(cyclopropanecarbonyl)piperazine-1-carbonyl]-4-fluorophenyl]methyl]-2H-phthalazin-1-one, reference compound]	modestly attenuated	increased FDG-uptake	–	–	–	–	–
